Laboratory results published in ChEMBL document CHEMBL5257123, “Synthesis of 6-alkoxy and 6-hydroxy-alkyl amine derivatives of braylin as vasorelaxing agents” (Bioorg Med Chem Lett, 2023).
Activity calls are given as the source filed them. The calls are words filed in the database; no cut-off is given here.

Experiments:
Rattus norvegicus [1] = species: Rattus norvegicus; assay: Vasorelaxant activity in U46619-induced preconstricted rat endothelium-intact main mesenteric artery assessed as relaxation response at 30 uM relative to control; assay type: functional
Rattus norvegicus [2] = species: Rattus norvegicus; assay: Vasorelaxant activity in U46619-induced preconstricted rat endothelium-intact main mesenteric artery assessed as relaxation response; assay type: functional
BV-2 [3] = assay: Anti-neuroinflammatory activity in mouse BV2 cells assessed as reduction in LPS-induced TNFalpha production at 10 uM preincubated for 30 mins followed by LPS stimulation measured after 24 hrs by ELISA; assay type: functional, cell-based; details: time 24.5 hrs
BV-2 [4] = assay: Anti-neuroinflammatory activity in mouse BV2 cells assessed as reduction in LPS-induced IL-6 production at 10 uM preincubated for 30 mins followed by LPS stimulation measured after 24 hrs by ELISA; assay type: functional, cell-based; details: time 24.5 hrs
[5] = Cytotoxicity against VSMC (unknown origin) cells assessed as cell survival at 1 uM measured after 12 hrs by MTT assay; assay type: toxicity, cell-based; details: read-out: Activity
[6] = Cytotoxicity against VSMC (unknown origin) cells assessed as cell survival at 10 uM measured after 12 hrs by MTT assay; assay type: toxicity, cell-based; details: read-out: Activity
Rattus norvegicus [7] = species: Rattus norvegicus; assay: Vasorelaxant activity in U46619 induced preconstricted rat endothelium-intact thoracic aortic rings assessed as vasorelaxation response; assay type: functional; details: Thoracic aorta
Rattus norvegicus [8] = species: Rattus norvegicus; assay: Vasorelaxant activity in U46619-induced contraction in rat endothelium-denuded main mesenteric arterial ring assessed as relaxation response; assay type: functional; details: Mesenteric artery
Rattus norvegicus [9] = species: Rattus norvegicus; assay: Vasorelaxant activity in U46619-induced contraction in rat endothelium-denuded main mesenteric arterial ring assessed as relaxation response relative to control; assay type: functional; details: Mesenteric artery
Rattus norvegicus [10] = species: Rattus norvegicus; assay: Vasorelaxant activity in U46619-induced contraction rat endothelium-intact main mesenteric arterial rings assessed as relaxation response relative to control; assay type: functional; details: Mesenteric artery
Rattus norvegicus [11] = species: Rattus norvegicus; assay: Vasorelaxant activity in U46619-induced contraction rat endothelium-intact main mesenteric arterial rings assessed as relaxation response; assay type: functional; details: Mesenteric artery
Rattus norvegicus [12] = species: Rattus norvegicus; assay: Vasorelaxant activity in MKHS-induced preconstricted rat main mesenteric arterial rings assessed as relaxation response; assay type: functional; details: Mesenteric artery
Rattus norvegicus [13] = species: Rattus norvegicus; assay: Vasorelaxant activity in U46619-induced preconstricted rat endothelium-intact main mesenteric artery assessed as relaxation response at 10 uM (reference value: 9.08 +/- 1.25 mN); assay type: functional; set-up: scale not given: the % may be the effect or the level left
Rattus norvegicus [14] = species: Rattus norvegicus; assay: Vasorelaxant activity in rat endothelium-intact main mesenteric artery assessed as relaxation response at 10 uM; assay type: functional
Rattus norvegicus [15] = species: Rattus norvegicus; assay: Vasorelaxant activity in rat endothelium-denuded main mesenteric artery assessed as relaxation response at 10 uM; assay type: functional

CN(C)CC(O)COc1cc2ccc(=O)oc2c2c1OC(C)(C)C=C2 (stereo not given)
Emax at 30 µM (Rattus norvegicus [1]): < 50%

CCN1CCN(CC(O)COc2cc3ccc(=O)oc3c3c2OC(C)(C)C=C3)CC1 (stereo not given)
Emax at 30 µM (Rattus norvegicus [1]): < 50%

CCCCN(C)CC(O)COc1cc2ccc(=O)oc2c2c1OC(C)(C)C=C2 (stereo not given)
Emax at 30 µM (Rattus norvegicus [1]): < 50%

CC1(C)C=Cc2c(c(OCC(O)CN3CCCCC3)cc3ccc(=O)oc23)O1 (stereo not given)
Emax at 30 µM (Rattus norvegicus [1]): < 50%

CC1(C)C=Cc2c(c(OCC3CO3)cc3ccc(=O)oc23)O1 (stereo not given)
Emax at 30 µM (Rattus norvegicus [1]): < 50%

CC1(C)C=Cc2c(c(OCC(O)CN3CCOCC3)cc3ccc(=O)oc23)O1 (stereo not given)
Emax at 30 µM (Rattus norvegicus [1]): < 50%

COc1cc2ccc(=O)oc2c2c1OC(C)(C)C=C2
EC50 (Rattus norvegicus [2]; read-out: EC50): 1580 nM | EC50 (Rattus norvegicus [2]; read-out: pEC50 (converted)): 1580 nM | Activity (BV-2 [3]): Active | Activity (BV-2 [4]): Active | viability at 12 h, 1 µM [5]: 101% | viability at 12 h, 10 µM [6]: 95.2%

CC(C)N(CC(O)COc1cc2ccc(=O)oc2c2c1OC(C)(C)C=C2)C(C)C (stereo not given)
Emax at 30 µM (Rattus norvegicus [1]): < 50%

CCOc1cc2ccc(=O)oc2c2c1OC(C)(C)C=C2
Emax at 30 µM (Rattus norvegicus [1]): 96.6% | EC50 (Rattus norvegicus [2]; read-out: pEC50 (converted)): 200 nM | Activity (Rattus norvegicus [7]): Dose-Dependent Effect | EC50 (Rattus norvegicus [8]): 195 nM | Emax (Rattus norvegicus [9]): 91.4% | Emax (Rattus norvegicus [10]): 96.6% | EC50 (Rattus norvegicus [11]): 200 nM | Activity (Rattus norvegicus [12]): Active | Activity (BV-2 [3]): Active | Activity (BV-2 [4]): Active | viability at 12 h, 1 µM [5]: 114% | viability at 12 h, 10 µM [6]: 105%

CC1(C)C=Cc2c(ccc3ccc(=O)oc23)O1 [SESALIN]
Emax at 30 µM (Rattus norvegicus [1]): 60.8% | EC50 (Rattus norvegicus [2]; read-out: EC50): 2120 nM | EC50 (Rattus norvegicus [2]; read-out: pEC50 (converted)): 2140 nM | Activity (BV-2 [3]): Active | Activity (BV-2 [4]): Active

CCCCCN(C)CC(O)COc1cc2ccc(=O)oc2c2c1OC(C)(C)C=C2 (stereo not given)
Emax at 30 µM (Rattus norvegicus [1]): < 50%

CC(C)Oc1cc2ccc(=O)oc2c2c1OC(C)(C)C=C2
Emax at 30 µM (Rattus norvegicus [1]): < 50%

CC1(C)C=Cc2c(c(OCC(O)CN3CCNCC3)cc3ccc(=O)oc23)O1 (stereo not given)
Emax at 30 µM (Rattus norvegicus [1]): < 50%

CCCOc1cc2ccc(=O)oc2c2c1OC(C)(C)C=C2
Emax at 30 µM (Rattus norvegicus [1]): 80.6% | EC50 (Rattus norvegicus [2]; read-out: EC50): 1900 nM | EC50 (Rattus norvegicus [2]; read-out: pEC50 (converted)): 2040 nM | Activity (Rattus norvegicus [7]): Dose-Dependent Effect | EC50 (Rattus norvegicus [8]): 339 nM | Emax (Rattus norvegicus [9]): 85% | Emax (Rattus norvegicus [10]): 80.6% | EC50 (Rattus norvegicus [11]): 2040 nM | Activity (Rattus norvegicus [12]): Active | Activity (BV-2 [3]): Active | Activity (BV-2 [4]): Active | viability at 12 h, 1 µM [5]: 107% | viability at 12 h, 10 µM [6]: 105%

CCCCOc1cc2ccc(=O)oc2c2c1OC(C)(C)C=C2
Emax at 30 µM (Rattus norvegicus [1]): < 50%

CN1CCN(CC(O)COc2cc3ccc(=O)oc3c3c2OC(C)(C)C=C3)CC1 (stereo not given)
Emax at 30 µM (Rattus norvegicus [1]): < 50%

CC(=O)OCC[N+](C)(C)C [ACETYLCHOLINE]
Activity (Rattus norvegicus [13]): 88.4% | Activity (Rattus norvegicus [14]): Active | Activity (Rattus norvegicus [15]): inactive

CC1(C)C=Cc2c(c(O)cc3ccc(=O)oc23)O1
Activity (BV-2 [3]): Active | Activity (BV-2 [4]): Active

CC1(C)C=Cc2c(c(OCC(O)CNCc3ccccn3)cc3ccc(=O)oc23)O1 (stereo not given)
Emax at 30 µM (Rattus norvegicus [1]): < 50%

CC1(C)C=Cc2c(c(OCC(O)CN3CCCC3)cc3ccc(=O)oc23)O1 (stereo not given)
Emax at 30 µM (Rattus norvegicus [1]): < 50%

COc1cc2ccc(=O)oc2cc1O [SCOPOLETIN]
Activity (BV-2 [3]): Active | Activity (BV-2 [4]): Active | viability at 12 h, 1 µM [5]: 91.2% | viability at 12 h, 10 µM [6]: 102%

CCN(CC)CC(O)COc1cc2ccc(=O)oc2c2c1OC(C)(C)C=C2 (stereo not given)
Emax at 30 µM (Rattus norvegicus [1]): < 50%
